Laboratory results taken from patent US12668589B2, “N-formamidopyrazoline derivative as P2X3 receptor antagonist and use thereof” (HANGZHOU WESTAN PHARMACEUTICAL TECHNOLOGY CO., LTD, priority 2020, dated 2026).
pIC50: −log10 of the molar value.

Molecular target: T1, human P2X3 (Homo sapiens, UniProt P56373)
T1 sequence (P56373 1-397): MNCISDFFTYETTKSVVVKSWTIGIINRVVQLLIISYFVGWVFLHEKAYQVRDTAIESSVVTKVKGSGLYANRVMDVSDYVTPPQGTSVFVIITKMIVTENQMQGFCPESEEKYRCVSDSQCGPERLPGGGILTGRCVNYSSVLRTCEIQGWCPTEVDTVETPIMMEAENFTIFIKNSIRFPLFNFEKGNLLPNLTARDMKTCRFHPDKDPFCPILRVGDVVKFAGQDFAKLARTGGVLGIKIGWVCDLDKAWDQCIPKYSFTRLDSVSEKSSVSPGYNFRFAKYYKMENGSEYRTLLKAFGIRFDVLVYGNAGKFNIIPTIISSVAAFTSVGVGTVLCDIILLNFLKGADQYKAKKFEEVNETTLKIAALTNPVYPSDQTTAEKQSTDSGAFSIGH
Experiment: cell-based
Protocol: An HEK293 cell line was used as cells. HEK293 cells were placed in a 37° C. incubator with 5% CO2 for culture. Passage was conducted when the cells grew to a density of 80% to 90%. A culture medium in an original 60 mm culture dish was discarded. After the cells were washed 3 times with a sterilized PBS solution, and the solution was blotted up. […] After the trypsin was blotted up, 3 mL of a cell culture medium was added to resuspend the cells. 0.5 mL of a resuspension solution was taken to be added into a new culture dish, and an total culture solution was supplemented to 5 mL. The culture dish was gently shaken to distribute the cells evenly, and then placed in a 37° C. incubator with 5% CO2 for culture.
First, treated slides were spread in a small 35 mm culture dish. 100 μL of resuspended cells were added, and then a total amount of a culture medium was supplemented to 2 mL. Target genes were transferred into the HEK293 cell line by adopting a calcium transfection method. Small dishes to be transfected were subjected to medium change 1 hour before transfection. 2 mL of a fresh cell culture solution was added. A 1.5 mL EP tube was taken, 200 μL of a 0.25 M CaCl2) solution was added, and 3 μg of plasmids to be transfected were added, and even mixing was conducted to form a DNA-CaCl2 solution. […] A pipette tip was used for mixing while adding. After adding all, gentle blowing and beating were conducted 8 to 10 times. After still standing for 5 minutes, they were added into small dishes. The small dishes were shaken slightly to mix the solution evenly, and the placed in a cell incubator. Culture mediums were replaced after 8 to 10 hours. Electrophysiological experiments were performed 24 to 48 hours after transfection.
Electrophysiological recording electrodes were obtained by two-step pulling by using an electrode puller (PP-10, Narishige). After an internal solution is injected into the electrodes, a water inlet resistance is 3 to 5 MΩ. During the experiment, a high potassium salt internal solution containing nystatin (K2SO4 of 75 mM, KCl of 120 mM, MgSO4 of 5 mM, HEPES of 10 mM, adjusting pH to 7.2 with Tris-base, and used after filtration) was used as an electrode internal solution. After the cells were sealed by the electrodes, there was no need to further break cell membranes in a sucked manner, but the cell membranes were bored through the perforation of the nystatin to the cell membranes, to form a hole channel. […] A clamping voltage was −60 mV, a sampling frequency was 10 kHz, and filtering was conducted at 2 kHz.
A working concentration of a P2X3 receptor agonist ATP was 1 μM, and an interval time between two times of ATP administrations was 10 minutes.

Row | pIC50 | SMILES
1 | 5.12 | Cc1ccc(C2=NN(C(=O)N[C@H](C)c3ccc(Cl)cc3)C[C@@H]2N2CCN(C)CC2=O)cc1 [Compound 2, (S)-4-(4-methyl-2-oxopiperazin-1-yl)-3-(4-methylphenyl)-N-((R)-1-(4-chlorophenyl)ethyl)-4,5-dihydro-1H-pyrazol-1-carboxamide]
2 | 6.67 | Cc1ccc(C2=NN(C(=O)N[C@H](C)c3cnc(C(F)(F)F)nc3)C[C@@H]2N2CCOCC2=O)cc1 [Compound 3]
3 | 6.50 | Cc1ccc(C2=NN(C(=O)N[C@H](C)c3cnc(C(F)(F)F)nc3)C[C@H]2N2CCOCC2=O)cc1 [Compound 3a, (R)-4-(3-oxomorpholin-4-yl)-3-(4-methylphenyl)-N-((R)-1-(2-(trifluoromethyl)pyrimidin-5-yl)ethyl)-4,5-dihydro-1H-pyrazol-1-carboxamide]
4 | 6.39 | CC(=O)N(C)[C@H]1CN(C(=O)N[C@H](C)c2ccc(C(F)(F)F)cc2)N=C1c1ccc(C)cc1 [Compound 5]
5 | 6.45 | CC(=O)N(C)[C@@H]1CN(C(=O)N[C@H](C)c2ccc(C(F)(F)F)cc2)N=C1c1ccc(C)cc1 [Compound 5a, (R)-4-(N-methylacetamido)-3-(4-methylphenyl)-N-((R)-1-(4-(trifluoromethyl)phenyl)ethyl)-4,5-dihydro-1H-pyrazol-1-carboxamide]
6 | 5.91 | COc1ccc([C@@H](C)NC(=O)N2C[C@H](N3CCOC3=O)C(c3ccc(C)cc3)=N2)cc1OC [Compound 6]
7 | 6.01 | Cc1ccc(C2=NN(C(=O)N[C@H](C)c3ccc4c(c3)OCO4)C[C@@H]2N2CCCC2=O)cc1 [Compound 7, (S)-4-(2-oxopyrrolidin-1-yl)-3-(4-methylphenyl)-N-((R)-1-(3,4-(methylenedioxy)phenyl)ethyl)-4,5-dihydro-1H-pyrazol-1-carboxamide]
8 | 6.10 | CC(=O)N1CCN([C@H]2CN(C(=O)N[C@H](C)c3ccc(C#N)cc3)N=C2c2ccc(C)cc2)C1=O [Compound 8, (S)-4-(3-acetyl-2-oxoimidazolidin-1-yl)-3-(4-methylphenyl)-N-((R)-1-(4-cyanophenyl)ethyl)-4,5-dihydro-1H-pyrazol-1-carboxamide]
9 | 6.28 | COc1ccc([C@@H](C)NC(=O)N2C[C@H](N3CCCC3=O)C(c3ccc(C)cc3)=N2)nc1 [Compound 9]
10 | 6.67 | Cc1ccc(C2=NN(C(=O)N[C@H](C)c3ccc(C(F)(F)F)cn3)C[C@@H]2N2CCCC2=O)cc1 [Compound 10]
11 | 6.87 | Cc1ccc(C2=NN(C(=O)N[C@H](C)c3ccc(C(F)(F)F)cn3)C[C@H]2N2CCCC2=O)cc1 [Compound 10a]
12 | 6.45 | CC(=O)N(C)[C@H]1CN(C(=O)N[C@H](C)c2ccc(Cl)nc2)N=C1c1ccc(C)cc1 [Compound 11]
13 | 6.55 | CC(=O)N(C)[C@@H]1CN(C(=O)N[C@H](C)c2ccc(Cl)nc2)N=C1c1ccc(C)cc1 [Compound 11a]
14 | 6.36 | Cc1ccc(C2=NN(C(=O)N[C@H](C)c3cnc(F)c(F)c3)C[C@@H]2N2CCOC2=O)cc1 [Compound 12]
15 | 6.49 | Cc1ccc(C2=NN(C(=O)N[C@H](C)c3cnc(F)c(F)c3)C[C@H]2N2CCOC2=O)cc1 [Compound 12a]
16 | 6.59 | Cc1ccc(C2=NN(C(=O)N[C@H](C)c3ccc(OC(F)(F)F)nc3)C[C@@H]2N2CCCC2=O)cc1 [Compound 13]
17 | 6.48 | Cc1ccc(C2=NN(C(=O)N[C@H](C)c3ccc(OC(F)(F)F)nc3)C[C@H]2N2CCCC2=O)cc1 [Compound 13a]
18 | 6.13 | COc1ccc([C@@H](C)NC(=O)N2C[C@H](N3CCOCC3)C(c3ccc(F)cc3)=N2)cn1 [Compound 14, (S)-4-(morpholin-4-yl)-3-(4-fluorophenyl)-N-((R)-1-(6-methoxypyridin-3-yl)ethyl)-4,5-dihydro-1H-pyrazol-1-carboxamide]
19 | 5.64 | Cc1ccc(C2=NN(C(=O)N[C@H](C)c3ccc(C(F)(F)F)nc3)C[C@@H]2N(C)C(=O)CN(C)C)cc1 [Compound 15, (S)-4-(2-(dimethylamino)-N-methylacetamido)-3-(4-methylphenyl)-N-((R)-1-(6-(trifluoromethyl)pyridin-3-yl)ethyl)-4,5-dihydro-1H-pyrazol-1-carboxamide]
